Activity calls are given as the source filed them.
What was measured:
[1] = target: T1, CAAX prenyl protease 2 (Homo sapiens, UniProt Q9Y256); assay: inhibition of Ras-converting CAAX protease Rce1 – biochemical, yeast membranes, quenched-peptide fluorescence, cherry-pick, dose response (AID 588849)
T1 sequence (Q9Y256 whole entry): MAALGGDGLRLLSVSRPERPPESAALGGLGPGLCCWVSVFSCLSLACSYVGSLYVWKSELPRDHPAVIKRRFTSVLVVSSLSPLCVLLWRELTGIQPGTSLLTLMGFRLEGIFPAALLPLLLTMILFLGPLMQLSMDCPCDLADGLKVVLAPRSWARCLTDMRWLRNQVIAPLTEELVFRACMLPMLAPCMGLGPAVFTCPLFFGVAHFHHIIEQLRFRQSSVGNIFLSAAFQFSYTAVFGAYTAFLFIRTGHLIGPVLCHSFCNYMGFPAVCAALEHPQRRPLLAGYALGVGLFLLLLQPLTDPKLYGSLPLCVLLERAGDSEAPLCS

[2] = target: DNA dC->dU-editing enzyme APOBEC-3G (Homo sapiens, UniProt Q9HC16); type: functional;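 also: Dose-response counterscreen measuring inhibition of APOBEC3G DNA deaminase activity, run while confirming APOBEC3A inhibitors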
[3] = target: DNA dC->dU-editing enzyme APOBEC-3A (Homo sapiens, UniProt P31941); assay: Dose Response confirmation of small molecule APOBEC3A DNA Deaminase Inhibitors via a fluorescence-based single-stranded DNA deaminase assay. [Related pubchem assays (depositor defined):AID493011, AID493024]; type: functional
[4] = target: T2, Carboxy-terminal domain RNA polymerase II polypeptide A small phosphatase 1 (Homo sapiens, UniProt Q9GZU7); assay: CTDSP1 inhibitors, concentration-response, biochemical, absorbance readout, ultra-high-throughput screen actives (AID 540297); type: functional
T2 sequence (Q9GZU7 whole entry): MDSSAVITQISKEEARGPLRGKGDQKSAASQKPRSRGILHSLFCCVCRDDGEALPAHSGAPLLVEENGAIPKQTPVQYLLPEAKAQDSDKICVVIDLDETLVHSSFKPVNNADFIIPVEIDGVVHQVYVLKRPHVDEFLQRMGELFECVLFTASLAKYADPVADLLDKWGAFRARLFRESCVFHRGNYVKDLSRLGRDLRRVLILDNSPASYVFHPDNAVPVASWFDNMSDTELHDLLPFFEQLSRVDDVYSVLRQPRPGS

[5] = restored growth of temperature-sensitive Burl-1 yeast – whole organism, S. cerevisiae, Burl-1 ts mutant, luminescence, counter-screen for SUMOylation pathway inhibitor project, dose response (AID 463199); type: functional
[6] = MIN6 cell viability loss – mouse insulinoma, cytotoxicity control, dose response (AID 2122); type: functional;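 also: confirmatory high-throughput counterscreen run to flag cytotoxic compounds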
[7] = decrease of insulin promoter-GFP reporter – imaging, high-content screening, mouse beta cells (AID 1628); type: functional; details: MIN6
[8] = target: Glyceraldehyde-3-phosphate dehydrogenase (Homo sapiens, UniProt P04406)
[9] = target: T3, Alkaline phosphatase, tissue-nonspecific isozyme (Homo sapiens, UniProt P05186); assay: potency against alkaline phosphatase TNAP – biochemical, luminescent, dose response, SAR follow-up (AID 1056)
T3 sequence (P05186 whole entry): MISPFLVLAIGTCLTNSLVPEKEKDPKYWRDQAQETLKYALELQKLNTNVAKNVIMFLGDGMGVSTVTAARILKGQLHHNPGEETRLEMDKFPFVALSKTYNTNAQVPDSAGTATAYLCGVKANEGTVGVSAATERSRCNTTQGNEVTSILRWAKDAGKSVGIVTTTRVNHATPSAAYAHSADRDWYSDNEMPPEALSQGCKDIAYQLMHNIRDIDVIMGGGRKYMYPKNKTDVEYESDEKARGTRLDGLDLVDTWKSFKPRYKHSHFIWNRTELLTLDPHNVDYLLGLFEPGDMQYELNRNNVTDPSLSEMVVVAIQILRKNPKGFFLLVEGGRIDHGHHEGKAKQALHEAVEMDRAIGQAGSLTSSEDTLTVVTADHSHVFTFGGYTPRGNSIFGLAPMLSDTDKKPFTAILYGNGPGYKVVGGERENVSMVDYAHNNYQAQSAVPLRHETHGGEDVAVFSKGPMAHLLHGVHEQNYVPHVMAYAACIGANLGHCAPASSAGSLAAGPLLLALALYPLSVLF

[10] = test system: Vero; assay: cells; type: functional; details: Chlorocebus sabaeus
[11] = test system: Vero; assay: cells; type: functional, cell-based; details: Chlorocebus sabaeus
[12] = non-specific 3'UTR reporter inhibition in Clone20-Shn3RL – cell-based, Renilla luciferase, cherry-picked, counter-screen for Shn3 inhibitor project, dose response (AID 624133); type: functional
[13] = NIH3T3 cell viability loss – ATP luminescence, mouse fibroblasts, counter-screen, dose response (AID 2010); type: functional, cell-based;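 also: cells exposed to compound for about 90 hours before reading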
[14] = test system: INS1; assay: INS-1E survival protection against cytokine death – cell-based, luminescence, retest, dose response (AID 449756); type: functional; details: Rattus norvegicus;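 also: cell death triggered by IL-1 beta plus TNF-alpha plus IFN-gamma mixture; protective hits raise ATP signal compared with cytokine alone wells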
[15] = target: T4, Short transient receptor potential channel 4 (Mus musculus, UniProt Q9QUQ5); assay: calcium entry via TRPC4 opening agents – cell-based, HEK293 TRPC4/mu-opioid, Fluo-4 calcium, dose response (AID 434937); type: functional
T4 sequence (Q9QUQ5 whole entry): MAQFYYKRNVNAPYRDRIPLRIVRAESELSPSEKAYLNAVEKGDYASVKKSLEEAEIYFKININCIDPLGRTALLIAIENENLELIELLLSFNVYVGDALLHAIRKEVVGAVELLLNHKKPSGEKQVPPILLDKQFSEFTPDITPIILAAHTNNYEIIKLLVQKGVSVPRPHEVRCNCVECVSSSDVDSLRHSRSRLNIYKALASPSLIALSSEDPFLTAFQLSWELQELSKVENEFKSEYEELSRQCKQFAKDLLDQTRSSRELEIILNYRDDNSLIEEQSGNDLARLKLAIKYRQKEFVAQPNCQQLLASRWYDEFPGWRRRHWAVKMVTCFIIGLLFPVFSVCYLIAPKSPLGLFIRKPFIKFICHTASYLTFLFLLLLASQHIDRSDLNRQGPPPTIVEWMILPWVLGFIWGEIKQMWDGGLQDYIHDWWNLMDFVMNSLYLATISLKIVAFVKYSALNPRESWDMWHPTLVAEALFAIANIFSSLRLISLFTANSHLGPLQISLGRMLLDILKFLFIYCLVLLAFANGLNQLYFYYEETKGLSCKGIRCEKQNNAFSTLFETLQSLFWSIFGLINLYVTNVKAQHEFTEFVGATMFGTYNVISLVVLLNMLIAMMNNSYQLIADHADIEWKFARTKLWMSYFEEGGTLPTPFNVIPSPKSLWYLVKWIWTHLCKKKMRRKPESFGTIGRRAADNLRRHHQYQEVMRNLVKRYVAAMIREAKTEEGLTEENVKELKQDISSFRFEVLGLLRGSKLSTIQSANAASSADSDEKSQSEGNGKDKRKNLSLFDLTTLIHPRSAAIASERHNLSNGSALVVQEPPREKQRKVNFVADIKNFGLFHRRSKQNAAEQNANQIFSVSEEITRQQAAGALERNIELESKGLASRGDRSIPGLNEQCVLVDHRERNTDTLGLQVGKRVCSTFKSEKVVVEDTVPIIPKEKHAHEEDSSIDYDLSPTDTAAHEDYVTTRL

[16] = loss of viability in HepG2 cells – cell-based, CellTiter-Glo, cherry-picked, cytotoxicity control for Shn3 inhibitor project, dose response (AID 624134); type: functional
[17] = Trypanosoma cruzi growth suppression in host cells – NIH3T3 host cells, beta-gal luminescence, confirmation (AID 2044); type: functional, cell-based;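 also: intracellular parasites grown in NIH/3T3 mouse fibroblasts as host cells; luminescent beta-galactosidase reporter signal from transgenic T. cruzi replicating inside host cells; inhibitors lower the luminescence signal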
[18] = HEK-293T viability loss after treatment – luminescence, T-cell screen hits, cytotoxicity control for TCR NF-kB inhibitor project, dose response (AID 489026); type: functional, cell-based;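 also: cells exposed to compound about 14 hours before the viability readout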
[19] = reduction of Shn3 3'UTR-driven luciferase in osteoblasts – cell-based, Clone20 osteoblasts, firefly luciferase, cherry-picked, dose response (AID 624132); type: functional;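 also: firefly luciferase luminescence from reporter carrying the Shn3 3'UTR in osteoblasts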
[20] = target: Cytochrome P450 3A4 (Homo sapiens, UniProt P08684);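 also: CYP3A4 tested as one member of a cytochrome P450 panel screen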
[21] = target: Cytochrome P450 2C19 (Homo sapiens, UniProt P33261); assay: Cytochrome panel assay with activity outcomes. Panel member name: p450-cyp2c19 Compounds with AC50 equal or less than 10 uM are considered active; type: functional
[22] = target: T5, Cytochrome P450 2C9 (Homo sapiens, UniProt P11712)
[23] = target: T5, Cytochrome P450 2C9; remark: listed apart in the source
[24] = target: Eukaryotic translation initiation factor 4E (Mus musculus, UniProt P63073); assay: blockers of eIF4G binding by eIF4E – biochemical, TR-FRET, dose response (AID 855); type: functional;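 also: potency for disrupting eIF4E binding to eIF4GI seen as loss of FRET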
[25] = target: T6, Corticotropin-releasing factor receptor 2/Corticotropin-releasing factor-binding protein (Homo sapiens, UniProt P24387+Q13324); assay: Dose Response confirmation of uHTS hits for small molecule antagonists of the CRF-binding protein and CRF-R2 receptor complex.; type: functional; details: read-out: IC50_Mean
T6 sequence (Q13324 whole entry): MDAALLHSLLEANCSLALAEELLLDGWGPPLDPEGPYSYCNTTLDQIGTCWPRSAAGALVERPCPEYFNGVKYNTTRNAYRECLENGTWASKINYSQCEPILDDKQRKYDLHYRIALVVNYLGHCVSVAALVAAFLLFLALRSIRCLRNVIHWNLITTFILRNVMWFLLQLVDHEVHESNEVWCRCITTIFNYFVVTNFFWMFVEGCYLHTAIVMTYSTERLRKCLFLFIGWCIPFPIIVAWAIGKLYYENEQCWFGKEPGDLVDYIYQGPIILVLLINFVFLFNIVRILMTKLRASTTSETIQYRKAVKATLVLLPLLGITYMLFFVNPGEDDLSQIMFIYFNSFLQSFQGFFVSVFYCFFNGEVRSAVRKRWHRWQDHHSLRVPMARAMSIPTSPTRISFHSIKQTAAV
T6 sequence (P24387 whole entry): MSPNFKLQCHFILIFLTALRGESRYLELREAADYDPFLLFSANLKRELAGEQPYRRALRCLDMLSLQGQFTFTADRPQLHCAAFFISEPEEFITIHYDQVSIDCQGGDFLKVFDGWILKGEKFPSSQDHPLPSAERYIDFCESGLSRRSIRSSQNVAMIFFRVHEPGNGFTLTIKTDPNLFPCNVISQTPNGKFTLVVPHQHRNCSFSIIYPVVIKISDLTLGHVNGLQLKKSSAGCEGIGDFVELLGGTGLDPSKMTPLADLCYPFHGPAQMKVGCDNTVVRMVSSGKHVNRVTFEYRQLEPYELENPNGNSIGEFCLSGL

[26] = target: T6, Corticotropin-releasing factor receptor 2/Corticotropin-releasing factor-binding protein; assay: activators of CRF receptor 2 with binding protein – uHTS hits, confirmation (AID 602473); type: functional; details: read-out: EC50_Mean
[27] = target: Voltage-gated inwardly rectifying potassium channel KCNH2 (Homo sapiens, UniProt Q12809); details: Potency;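 also: confirmatory quantitative high-throughput screen measuring inhibition of hERG channel activity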
Sequence of Voltage-gated inwardly rectifying potassium channel KCNH2 (Q12809 whole entry): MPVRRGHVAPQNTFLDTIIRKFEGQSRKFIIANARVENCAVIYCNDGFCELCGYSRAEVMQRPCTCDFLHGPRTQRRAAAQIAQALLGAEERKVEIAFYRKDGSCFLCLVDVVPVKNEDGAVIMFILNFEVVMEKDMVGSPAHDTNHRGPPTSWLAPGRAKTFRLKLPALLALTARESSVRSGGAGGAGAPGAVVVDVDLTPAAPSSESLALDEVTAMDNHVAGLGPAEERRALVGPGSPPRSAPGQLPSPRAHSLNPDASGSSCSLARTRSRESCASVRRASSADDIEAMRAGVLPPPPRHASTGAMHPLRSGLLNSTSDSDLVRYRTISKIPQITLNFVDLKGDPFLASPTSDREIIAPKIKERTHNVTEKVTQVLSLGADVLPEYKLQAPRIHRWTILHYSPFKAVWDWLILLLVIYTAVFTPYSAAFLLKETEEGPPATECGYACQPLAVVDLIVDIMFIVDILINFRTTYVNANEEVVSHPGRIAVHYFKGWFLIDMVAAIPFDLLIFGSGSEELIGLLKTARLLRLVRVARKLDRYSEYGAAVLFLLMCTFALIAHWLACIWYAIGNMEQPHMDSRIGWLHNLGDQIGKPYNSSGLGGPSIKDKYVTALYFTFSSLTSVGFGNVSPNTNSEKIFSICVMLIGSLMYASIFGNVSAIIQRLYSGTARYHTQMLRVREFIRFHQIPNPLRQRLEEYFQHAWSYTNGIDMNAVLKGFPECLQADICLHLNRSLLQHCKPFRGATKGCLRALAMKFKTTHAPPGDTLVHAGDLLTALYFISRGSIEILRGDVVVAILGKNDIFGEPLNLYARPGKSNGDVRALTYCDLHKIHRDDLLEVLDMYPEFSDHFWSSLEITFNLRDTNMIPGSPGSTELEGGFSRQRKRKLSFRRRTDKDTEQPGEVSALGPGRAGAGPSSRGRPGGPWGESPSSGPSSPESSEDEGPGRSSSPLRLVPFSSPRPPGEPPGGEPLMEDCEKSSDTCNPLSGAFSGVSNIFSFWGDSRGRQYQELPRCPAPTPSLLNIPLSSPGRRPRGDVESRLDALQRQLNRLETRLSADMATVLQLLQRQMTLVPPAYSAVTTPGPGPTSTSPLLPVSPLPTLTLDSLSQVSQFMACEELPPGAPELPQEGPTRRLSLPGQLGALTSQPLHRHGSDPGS

Sequence of DNA dC->dU-editing enzyme APOBEC-3G (Q9HC16 whole entry): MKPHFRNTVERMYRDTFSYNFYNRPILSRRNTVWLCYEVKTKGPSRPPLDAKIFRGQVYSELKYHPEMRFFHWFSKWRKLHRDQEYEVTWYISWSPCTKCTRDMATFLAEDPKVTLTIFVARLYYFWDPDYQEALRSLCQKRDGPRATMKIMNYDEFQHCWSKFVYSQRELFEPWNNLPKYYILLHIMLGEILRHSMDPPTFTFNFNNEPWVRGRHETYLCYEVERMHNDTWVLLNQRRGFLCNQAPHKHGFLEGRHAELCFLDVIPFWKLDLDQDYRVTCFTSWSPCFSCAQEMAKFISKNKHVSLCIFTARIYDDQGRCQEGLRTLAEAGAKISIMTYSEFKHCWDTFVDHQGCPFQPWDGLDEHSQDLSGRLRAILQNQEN
Sequence of DNA dC->dU-editing enzyme APOBEC-3A (P31941 whole entry, the tested form may be a part): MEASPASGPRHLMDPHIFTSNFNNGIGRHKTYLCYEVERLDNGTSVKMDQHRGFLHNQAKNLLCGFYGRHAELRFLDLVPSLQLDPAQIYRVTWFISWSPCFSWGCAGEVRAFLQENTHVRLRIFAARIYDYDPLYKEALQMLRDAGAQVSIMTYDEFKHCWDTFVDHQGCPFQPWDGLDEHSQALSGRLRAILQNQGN
T5 sequence (P11712 whole entry): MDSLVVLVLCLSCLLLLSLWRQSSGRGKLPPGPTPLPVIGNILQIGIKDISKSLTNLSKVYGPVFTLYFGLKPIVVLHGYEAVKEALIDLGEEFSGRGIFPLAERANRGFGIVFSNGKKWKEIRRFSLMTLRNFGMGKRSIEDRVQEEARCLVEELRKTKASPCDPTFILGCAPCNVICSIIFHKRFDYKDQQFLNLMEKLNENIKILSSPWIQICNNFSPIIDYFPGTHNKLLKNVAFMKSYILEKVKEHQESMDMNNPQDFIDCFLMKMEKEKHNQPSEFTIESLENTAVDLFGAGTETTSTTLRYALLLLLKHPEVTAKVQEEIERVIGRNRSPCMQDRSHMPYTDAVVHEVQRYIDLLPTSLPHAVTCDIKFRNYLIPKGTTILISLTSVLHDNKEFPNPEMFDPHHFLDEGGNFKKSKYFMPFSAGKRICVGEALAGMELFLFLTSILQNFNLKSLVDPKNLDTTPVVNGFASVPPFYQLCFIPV
Sequence of Cytochrome P450 2C19 (P33261 whole entry): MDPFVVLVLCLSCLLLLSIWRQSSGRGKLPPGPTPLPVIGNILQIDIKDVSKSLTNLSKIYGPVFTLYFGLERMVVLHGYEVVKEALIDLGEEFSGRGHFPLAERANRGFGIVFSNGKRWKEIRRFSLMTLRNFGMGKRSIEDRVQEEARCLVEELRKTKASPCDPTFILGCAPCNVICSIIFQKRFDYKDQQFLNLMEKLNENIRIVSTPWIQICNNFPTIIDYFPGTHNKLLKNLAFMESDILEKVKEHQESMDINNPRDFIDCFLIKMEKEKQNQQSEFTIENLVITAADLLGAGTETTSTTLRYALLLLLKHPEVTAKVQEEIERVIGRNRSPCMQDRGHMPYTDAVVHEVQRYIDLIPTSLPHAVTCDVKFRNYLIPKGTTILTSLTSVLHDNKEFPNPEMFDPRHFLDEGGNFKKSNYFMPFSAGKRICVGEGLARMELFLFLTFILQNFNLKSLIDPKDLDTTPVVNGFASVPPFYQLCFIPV
Sequence of Glyceraldehyde-3-phosphate dehydrogenase (P04406 whole entry): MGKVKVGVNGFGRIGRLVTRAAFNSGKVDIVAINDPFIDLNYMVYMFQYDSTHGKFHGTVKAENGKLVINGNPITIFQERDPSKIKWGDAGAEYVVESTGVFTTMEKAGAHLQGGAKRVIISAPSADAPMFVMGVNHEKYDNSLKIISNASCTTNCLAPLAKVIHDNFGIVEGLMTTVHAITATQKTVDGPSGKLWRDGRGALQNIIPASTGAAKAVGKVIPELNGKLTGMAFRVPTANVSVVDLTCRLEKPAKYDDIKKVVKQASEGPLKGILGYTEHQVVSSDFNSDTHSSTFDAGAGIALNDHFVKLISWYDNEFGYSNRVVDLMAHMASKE
Sequence of Cytochrome P450 3A4 (P08684 whole entry): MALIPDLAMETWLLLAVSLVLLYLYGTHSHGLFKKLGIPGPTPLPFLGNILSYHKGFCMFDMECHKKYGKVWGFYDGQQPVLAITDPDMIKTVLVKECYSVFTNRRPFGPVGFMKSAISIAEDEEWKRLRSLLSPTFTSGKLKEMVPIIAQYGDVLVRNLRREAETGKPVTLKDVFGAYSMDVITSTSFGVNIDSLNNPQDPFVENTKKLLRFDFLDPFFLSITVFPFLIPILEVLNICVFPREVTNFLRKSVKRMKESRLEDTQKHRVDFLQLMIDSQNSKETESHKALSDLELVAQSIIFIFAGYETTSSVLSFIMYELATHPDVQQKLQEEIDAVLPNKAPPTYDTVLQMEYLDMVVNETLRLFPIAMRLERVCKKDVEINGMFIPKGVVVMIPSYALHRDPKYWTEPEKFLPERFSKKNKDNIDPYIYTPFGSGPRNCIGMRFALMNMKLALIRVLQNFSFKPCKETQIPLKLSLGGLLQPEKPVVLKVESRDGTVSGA
Sequence of Eukaryotic translation initiation factor 4E (P63073 whole entry): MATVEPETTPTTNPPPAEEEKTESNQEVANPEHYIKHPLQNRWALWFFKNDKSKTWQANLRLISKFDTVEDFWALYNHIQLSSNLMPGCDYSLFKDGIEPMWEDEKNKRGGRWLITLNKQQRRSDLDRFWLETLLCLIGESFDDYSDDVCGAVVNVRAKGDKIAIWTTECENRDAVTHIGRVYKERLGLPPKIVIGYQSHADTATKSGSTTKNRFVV

For `Cc1csc2nc(=O)c3ccccc3n12`, the AC50 [1] was 63 µM (active).
In the case of `Cc1cc(C(=O)NCc2ccc(C(=O)O)o2)c(C)o1`, the IC50 [2] is reported as 45.9 µM (active), the IC50 [3] is reported as 31 µM (active) and the IC50 [4] is reported as 4.04 µM (active).
For `CC(=O)c1cccc(CN2CCCC(N3CCN(c4ccccc4F)CC3)C2)c1` (stereo not given), the AC50 [5] was 49.9 µM (active).
For `Cc1ccc(-n2c(SCC(=O)NCC3CCCO3)nc3nnc(C)c-3c2N)cc1Cl` (stereo not given), the IC50 [6] was 4.6 µM (active) and the IC50 [7] was 2.21 µM (active).
In the case of `O=C1C(Cl)=C(Cl)C(=O)N1c1nnc(Cc2ccccc2)[nH]1`, the IC50 [8] is reported as > 100 µM (not active) and the IC50 [9] is reported as 3.24 µM (active).
With `CCc1c(C)sc(NC(=O)C2CC2c2ccccc2)c1C(N)=O` (stereo not given) the CC50 [10] was > 25 µM (active) and the IC50 [11] was 3.57 µM (active).
In the case of `O=C1[C@H]2CC=CC[C@H]2C(=O)N1c1nnc(Cc2ccc(F)cc2)[nH]1`, the IC50 [8] is reported as > 100 µM (not active) and the IC50 [9] is reported as 4.2 µM (active).
For `Cc1sc2ncnc(NC3CCN(Cc4ccccc4)CC3)c2c1C`, the AC50 [12] was 2.61 µM (active), the EC50 [13] was > 60 µM (not active) and the AC50 [14] was 2.88 µM (active). For the same compound, the IC50 [6] was 0.316 µM (active), the EC50 [15] was 0.0467 µM (active) and the AC50 [16] was 3.41 µM (active). For the same compound, the EC50 [17] was 1.78 µM (active), the IC50 [18] was > 80 µM (inactive) and the IC50 [7] was 0.411 µM (active). The AC50 [19] was 1.02 µM (active).
For `CC(=O)N1CCN(c2ccc(NC(=O)c3ccc(C)cc3)cc2)CC1`, the AC50 [20] was “inconclusive”, the AC50 [21] was 15.8 µM (inconclusive) and the AC50 [22] was 39.8 µM (inconclusive).
For `OC(COc1ccc(CNCCc2ccc(C(F)(F)F)cc2)cc1)CN1CCCCC1` (stereo not given), the CC50 [10] was 16.4 µM (active), the EC50 [13] was 5.08 µM (active) and the IC50 [11] was 8.76 µM (active). For the same compound, the EC50 [17] was 1.26 µM (active).
With `COc1ccc(CN2CCN(C(=O)CC(C)C)CC2)c(OC)c1OC` the AC50 [21] was 25.1 µM (inconclusive), the AC50 [23] was “inconclusive” and the IC50 [24] was > 64 µM (inactive).
With `COc1ccc(N2CC(C(=O)NCc3ccco3)CC2=O)cc1` (stereo not given) the IC50 [2] was 21.2 µM (active) and the IC50 [3] was 39.6 µM (active).
In the case of `CS(=O)(=O)Nc1ccccc1C(=O)NCc1ccccc1Cl`, the IC50 [25] is reported as > 47.1 µM (inactive), the AC50 [1] is reported as 12.8 µM (active) and the EC50 [26] is reported as > 53 µM (inactive).
For `CC1CCN(C(=O)Cn2cnc3c2c(=O)n(C)c(=O)n3C)c2ccccc2S1` (stereo not given), the AC50 [5] was 87.7 µM (active).
In the case of `CC(C)C[C@H](N)CSSC[C@@H](N)CC(C)C`, the AC50 [27] is reported as 35.5 µM (inconclusive).
In the case of `CC(COc1ccc(/C=C/c2ccccc2)cc1)[N+](C)(C)C` (stereo not given), the AC50 [27] is reported as 22.4 µM (inconclusive).
In the case of `C[n+]1ccccc1/C=C/c1ccccc1Cl`, the IC50 [2] is reported as 2.41 µM (active) and the IC50 [3] is reported as 2.25 µM (active).
With `Cc1ccc(Cn2cnc3ccccc32)cc1` the IC50 [6] was 4.02 µM (active) and the IC50 [7] was 4.89 µM (active).
